These results are taken from publication PMC9450471 (Computational Biology and Chemistry, 2022).

“And” between values parts separate entries of the source, which are not always exact repeats. Equal values may be shown once. Read-outs that look alike come from different tables or passages of the source.

The assay relates to SARS-CoV-2 (Omicron variant, B.1.1.529/BA.5 sublineage). The assay is classed as cell-based. The following applies: for time at which utmost effectiveness against the Omicron variant is reached: after administration/treatment starter.

Take `O=c1[nH]cnc2c([C@@H]3N[C@H](CO)[C@@H](O)[C@H]3O)c[nH]c12` [Forodesine]: the “100% CPE Inhibitory Concentration (CPEIC100)” value came out at 1.6 ± 0.065 µM and the “time at which utmost effectiveness against the Omicron variant is reached” value was in the range of 3.5 to 9.5 h. Under “listed as forodesine”, the “100% CPE Inhibitory Concentration (CPEIC100)” value turned out to be 1.6 µM.
As for `CC(C)Nc1nc2cc(Cl)c(Cl)cc2n1[C@H]1O[C@@H](CO)[C@H](O)[C@@H]1O` [Maribavir], the “100% CPE Inhibitory Concentration (CPEIC100)” value was found to be 7.986 ± 0.277 µM.
Consider `CC(C)C(=O)OC[C@H]1O[C@@H](n2ccc(NO)nc2=O)[C@H](O)[C@@H]1O` [Molnupiravir], for which the “100% CPE Inhibitory Concentration (CPEIC100)” value was found to be 6.19 ± 0.275 µM. Besides, the “100% CPE Inhibitory Concentration (CPEIC100)” value (listed as molnupiravir) is 6.19 µM.
`COc1nc(N)nc2c1ncn2[C@@H]1O[C@H](CO)[C@@H](O)[C@@H]1O` [Nelarabine]: the “100% CPE Inhibitory Concentration (CPEIC100)” value turned out to be 4.105 ± 0.149 µM.
`CCC(CC)COC(=O)[C@H](C)N[P@](=O)(OC[C@H]1O[C@@](C#N)(c2ccc3c(N)ncnn23)[C@H](O)[C@@H]1O)Oc1ccccc1` [Remdesivir]: the “100% CPE Inhibitory Concentration (CPEIC100)” value turned out to be 5.883 ± 0.255 µM. Also, the “100% CPE Inhibitory Concentration (CPEIC100)” value (listed as remdesivir) is 5.883 µM.
Take `CC(C)=CCNc1ncnc2c1ncn2[C@@H]1O[C@H](CO)[C@@H](O)[C@H]1O` [Riboprine, N ^6-(2-Isopentenyl)adenosine]: the “100% CPE Inhibitory Concentration (CPEIC100)” value is 1.11 µM and 1.11 ± 0.047 µM; the “time at which utmost effectiveness against the Omicron variant is reached” value was 3.5 to 9.5 h.
In the case of `OC[C@H]1O[C@@H](n2cnc3c(N[C@@H]4CCOC4)ncnc32)[C@H](O)[C@@H]1O` [Tecadenoson], the “100% CPE Inhibitory Concentration (CPEIC100)” value is 7.645 ± 0.24 µM.
As to `Nc1ncnc2c1ncn2[C@@H]1O[C@H](CO)[C@@H](O)[C@@H]1O` [Vidarabine, Arabinosyladenine], the “100% CPE Inhibitory Concentration (CPEIC100)” value came to 8.042 ± 0.288 µM.
